Measured values reported in US9932637B2, “Genetic polymorphisms associated with cardiovascular disorders and drug response, methods of detection and uses thereof” (CELERA CORPORATION, priority 2003, dated 2018).
Where “and” joins values, the source holds several entries; their conditions need not be identical. Identical values can stand only once.

Test system: patients with prior myocardial infarction (CARE study)
Assay: CARE aligned analysis (prospective and case/control design, white males): association of genotypes with pravastatin efficacy (Tables 13, 15)
Type: in vivo, human
Settings: for Pravastatin Patients (%) / Pravastatin Patients n/total / 2 Rare Alleles (%), Pravastatin Patients / 2 Rare Alleles n/total, Pravastatin Patients: F&NF MI; for Pravastatin Patients (%) / Pravastatin Patients n/total: WM; for 2 rare alleles n/total (%), pravastatin patients / Pravastatin vs placebo odds ratio, 0 rare alleles / Pravastatin vs placebo odds ratio, 1 rare allele / Pravastatin vs placebo odds ratio, 2 rare alleles: CARE, F MI/SD/NF MI
Procedure: The data presented in Table 8 based on an association of genotypes with pravastatin efficacy of the CARE samples were further analyzed and presented in Table 13. The further analysis was performed to align the data obtained from the analysis of the CARE samples, which was a prospective study, to the analysis of the WOSCOP samples, which was a case/control study. Table 13 also presents an analysis of the association of genotypes with pravastatin efficacy in the WOSCOPs samples. Relative to the analysis performed on the data presented in Table 8, there are two significant differences to determine if the SNP influenced pravastatin efficacy. Data obtained from the CARE samples were separated by study design into two groups, those in the prospective study design group and those in the case/control study design group. The original care study contained 16 protocol defined cardiovascular disease defined endpoints and 150 other phenotypes. […] The control groups used to compare the data were also divided into two groups, the “all possible” control group and the “cleaner” control group. […] Because the participants in the WOSCOPs trial were all white males, only data obtained from white males in the CARE study were analysed. Data from the “all possible” and “cleaner” controls were compared to data obtained from the cases in the prospective study design while only data from “cleaner” controls were compared to cases in the case/control study design. The data from the case/control cohorts were analysed using conditional logistic regression (as opposed to logistic regression used for the original anaylsis).
The anaylsis was refined as described for both Tables 13 and 14.

[1] = HLA-DPB1 hCV8851085, 0 Rare Alleles, CARE Prospective, Cleaner controls
[2] = HLA-DPB1 hCV8851085, 1 Rare Allele, CARE Case/Control, All Possible controls
[3] = HLA-DPB1 hCV8851085, 1 Rare Allele, CARE Case/Control, Cleaner controls
[4] = HLA-DPB1 hCV8851085, 1 Rare Allele, CARE Prospective, All Possible controls
[5] = HLA-DPB1 hCV8851085, 1 Rare Allele, CARE Prospective, Cleaner controls
[6] = HLA-DPB1 hCV8851085, Case/Control
[7] = HLA-DPB1 hCV8851085, Prospective
[8] = HLA-DPB1 hCV25651174, Case/Control
[9] = HLA-DPB1 hCV25651174, Prospective
[10] = HLA-DQB1 hCV9494470, 0 Rare Alleles, CARE Case/Control, All Possible controls
[11] = HLA-DQB1 hCV9494470, 0 Rare Alleles, CARE Case/Control, Cleaner controls
[12] = HLA-DQB1 hCV9494470, 0 Rare Alleles, CARE Prospective, All Possible controls
[13] = HLA-DQB1 hCV9494470, 0 Rare Alleles, CARE Prospective, Cleaner controls
[14] = HLA-DQB1 hCV9494470, 1 Rare Allele, CARE Case/Control, All Possible controls
[15] = HLA-DQB1 hCV9494470, 1 Rare Allele, CARE Case/Control, Cleaner controls
[16] = HLA-DQB1 hCV9494470, 1 Rare Allele, CARE Prospective, All Possible controls
[17] = HLA-DQB1 hCV9494470, 1 Rare Allele, CARE Prospective, Cleaner controls
[18] = HLA-DQB1 hCV9494470, Case/Control
[19] = HLA-DQB1 hCV9494470, Prospective
[20] = IL1RN hCV8737990, 0 Rare Alleles, CARE Case/Control, Cleaner controls
[21] = IL1RN hCV8737990, 0 Rare Alleles, CARE Prospective, All Possible controls
[22] = IL1RN hCV8737990, 0 Rare Alleles, CARE Prospective, Cleaner controls
[23] = IL1RN hCV8737990, 1 Rare Allele, CARE Case/Control, Cleaner controls
[24] = IL1RN hCV8737990, 1 Rare Allele, CARE Prospective, All Possible controls
[25] = IL1RN hCV8737990, 1 Rare Allele, CARE Prospective, Cleaner controls

**Q.** How did the “Pravastatin Patients (%)” value [1] turn out when `CC[C@H](C)C(=O)O[C@H]1C[C@H](O)C=C2C=C[C@H](C)[C@H](CC[C@@H](O)C[C@@H](O)CC(=O)O)[C@H]21` [pravastatin] was run?
**A.** The value was “(14.1%)”.

**Q.** What about the “Pravastatin Patients n/total” value [1] of the same compound?
**A.** The value was 74/523.

**Q.** What about the “Pravastatin Patients (%)” value [2] of the same compound?
**A.** Its value is “(10.3%)”.

**Q.** And the “Pravastatin Patients n/total” value [2]?
**A.** The value was 44/426.

**Q.** What about the “Pravastatin Patients (%)” value [3] of the same compound?
**A.** Its value is “(15.1%)”.

**Q.** And the “Pravastatin Patients n/total” value [3]?
**A.** The value was 44/292.

**Q.** And the “Pravastatin Patients (%)” value [4]?
**A.** The value was “(10.2%)”.

**Q.** And the “Pravastatin Patients n/total” value [4]?
**A.** The value was 44/433.

**Q.** And the “Pravastatin Patients (%)” value [5]?
**A.** Its value is “(14.9%)”.

**Q.** What about the “Pravastatin Patients n/total” value [5] of the same compound?
**A.** The value was 44/295.

**Q.** And the “2 Rare Alleles (%), Pravastatin Patients” value (HLA-DPB1 hCV8851085, CARE Case/Control)?
**A.** Its value is “(25.7%)”.

**Q.** What about the “2 rare alleles n/total (%), pravastatin patients” value (shortened to “2 rare alleles n/total (%)”) [6] of the same compound?
**A.** The value was “(22.9%)”.

**Q.** And the “Pravastatin vs placebo odds ratio, 0 rare alleles” value [6]?
**A.** Its value is 0.57.

**Q.** And the “Pravastatin vs placebo odds ratio, 1 rare allele” value [6]?
**A.** The value was 0.87.

**Q.** And the “Pravastatin vs placebo odds ratio, 2 rare alleles” value [6]?
**A.** Its value is 4.69.

**Q.** What about the “2 rare alleles n/total (%)” value [7] of the same compound?
**A.** Its value is “(22.9%)”.

**Q.** And the “Pravastatin vs placebo odds ratio, 0 rare alleles” value [7]?
**A.** The value was 0.58.

**Q.** What about the “Pravastatin vs placebo odds ratio, 1 rare allele” value [7] of the same compound?
**A.** The value was 0.85.

**Q.** And the “Pravastatin vs placebo odds ratio, 2 rare alleles” value [7]?
**A.** The value was 4.15.

**Q.** What about the “2 Rare Alleles n/total, Pravastatin Patients” value (HLA-DPB1 hCV25651174, CARE Case/Control) of the same compound?
**A.** Its value is 17/109.

**Q.** What about the “2 Rare Alleles n/total, Pravastatin Patients” value (HLA-DPB1 hCV25651174, CARE Prospective) of the same compound?
**A.** Its value is 17/110 and 17/77.

**Q.** What about the “Pravastatin vs placebo odds ratio, 0 rare alleles” value [8] of the same compound?
**A.** Its value is 0.59 and 0.51.

**Q.** What about the “Pravastatin vs placebo odds ratio, 1 rare allele” value [8] of the same compound?
**A.** Its value is 0.84 and 0.75.

**Q.** And the “Pravastatin vs placebo odds ratio, 2 rare alleles” value [8]?
**A.** Its value is 4.39 and 4.91.

**Q.** And the “Pravastatin vs placebo odds ratio, 0 rare alleles” value [9]?
**A.** Its value is 0.59 and 0.52.

**Q.** What about the “Pravastatin vs placebo odds ratio, 1 rare allele” value [9] of the same compound?
**A.** The value was 0.84 and 0.72.

**Q.** What about the “Pravastatin vs placebo odds ratio, 2 rare alleles” value [9] of the same compound?
**A.** Its value is 4.29 and 4.60.

**Q.** What about the “Pravastatin Patients (%)” value [10] of the same compound?
**A.** The value was “(11.1%)”.

**Q.** And the “Pravastatin Patients n/total” value [10]?
**A.** The value was 92/826.

**Q.** And the “Pravastatin Patients (%)” value [11]?
**A.** Its value is “(16.1%)”.

**Q.** What about the “Pravastatin Patients n/total” value [11] of the same compound?
**A.** The value was 92/572.

**Q.** What about the “Pravastatin Patients (%)” value [12] of the same compound?
**A.** The value was “(11.0%)”.

**Q.** And the “Pravastatin Patients n/total” value [12]?
**A.** The value was 92/840.

**Q.** What about the “Pravastatin Patients (%)” value [13] of the same compound?
**A.** The value was “(15.8%)”.

**Q.** And the “Pravastatin Patients n/total” value [13]?
**A.** Its value is 92/583.

**Q.** What about the “Pravastatin Patients (%)” value [14] of the same compound?
**A.** Its value is “(7.9%)”.

**Q.** What about the “Pravastatin Patients n/total” value [14] of the same compound?
**A.** The value was 28/353.

**Q.** What about the “Pravastatin Patients (%)” value [15] of the same compound?
**A.** Its value is “(11.5%)”.

**Q.** And the “Pravastatin Patients n/total” value [15]?
**A.** Its value is 28/244.

**Q.** What about the “Pravastatin Patients (%)” value [16] of the same compound?
**A.** The value was “(7.8%)”.

**Q.** What about the “Pravastatin Patients n/total” value [16] of the same compound?
**A.** The value was 28/361.

**Q.** What about the “Pravastatin Patients (%)” value [17] of the same compound?
**A.** Its value is “(11.3%)”.

**Q.** What about the “Pravastatin Patients n/total” value [17] of the same compound?
**A.** Its value is 28/247.

**Q.** What about the “Pravastatin vs placebo odds ratio, 0 rare alleles” value [18] of the same compound?
**A.** Its value is 0.99 and 0.90.

**Q.** And the “Pravastatin vs placebo odds ratio, 1 rare allele” value [18]?
**A.** Its value is 0.40 and 0.36.

**Q.** What about the “Pravastatin vs placebo odds ratio, 2 rare alleles” value [18] of the same compound?
**A.** Its value is 2.00 and 2.22.

**Q.** What about the “Pravastatin vs placebo odds ratio, 0 rare alleles” value [19] of the same compound?
**A.** Its value is 0.99 and 0.87.

**Q.** What about the “Pravastatin vs placebo odds ratio, 1 rare allele” value [19] of the same compound?
**A.** The value was 0.42 and 0.38.

**Q.** What about the “Pravastatin vs placebo odds ratio, 2 rare alleles” value [19] of the same compound?
**A.** The value was 2.06 and 2.16.

**Q.** What about the “Pravastatin Patients (%)” value [20] of the same compound?
**A.** Its value is “(14.9%)”.

**Q.** And the “Pravastatin Patients n/total” value [20]?
**A.** The value was 66/444.

**Q.** And the “Pravastatin Patients (%)” value [21]?
**A.** Its value is “(10.3%)”.

**Q.** What about the “Pravastatin Patients n/total” value [21] of the same compound?
**A.** The value was 66/642.

**Q.** And the “Pravastatin Patients (%)” value [22]?
**A.** Its value is “(14.6%)”.

**Q.** What about the “Pravastatin Patients n/total” value [22] of the same compound?
**A.** The value was 66/453.

**Q.** What about the “Pravastatin Patients (%)” value [23] of the same compound?
**A.** Its value is “(13.0%)”.

**Q.** And the “Pravastatin Patients n/total” value [23]?
**A.** Its value is 43/332.

**Q.** What about the “Pravastatin Patients (%)” value [24] of the same compound?
**A.** The value was “(8.7%)”.

**Q.** What about the “Pravastatin Patients n/total” value [24] of the same compound?
**A.** The value was 43/496.

**Q.** And the “Pravastatin Patients (%)” value [25]?
**A.** The value was “(12.8%)”.

**Q.** What about the “Pravastatin Patients n/total” value [25] of the same compound?
**A.** Its value is 43/336.

**Q.** And the “2 Rare Alleles (%), Pravastatin Patients” value (IL1RN hCV8737990, CARE Case/Control)?
**A.** The value was “(27.4%)”.

**Q.** And the “2 rare alleles n/total (%)” value (IL1RN hCV8737990, Case/Control)?
**A.** Its value is “(21.1%)”.

**Q.** And the “Pravastatin vs placebo odds ratio, 0 rare alleles” value (IL1RN hCV8737990, Case/Control)?
**A.** The value was 0.77.

**Q.** And the “Pravastatin vs placebo odds ratio, 1 rare allele” value (IL1RN hCV8737990, Case/Control)?
**A.** The value was 0.50.

**Q.** And the “Pravastatin vs placebo odds ratio, 2 rare alleles” value (IL1RN hCV8737990, Case/Control)?
**A.** The value was 1.97.

**Q.** What about the “2 rare alleles n/total (%)” value (IL1RN hCV8737990, Prospective) of the same compound?
**A.** Its value is “(20.7%)”.

**Q.** What about the “Pravastatin vs placebo odds ratio, 0 rare alleles” value (IL1RN hCV8737990, Prospective) of the same compound?
**A.** Its value is 0.80.

**Q.** What about the “Pravastatin vs placebo odds ratio, 1 rare allele” value (IL1RN hCV8737990, Prospective) of the same compound?
**A.** The value was 0.46.

**Q.** And the “Pravastatin vs placebo odds ratio, 2 rare alleles” value (IL1RN hCV8737990, Prospective)?
**A.** Its value is 1.92.

**Q.** What about the “Pravastatin vs placebo odds ratio, 0 rare alleles” value (IL4R hCV2769554, Case/Control) of the same compound?
**A.** Its value is 0.58 and 0.57.
